# Molecular target: T1, Papain (Carica papaya, UniProt P00784)
# T1 sequence (P00784 whole entry): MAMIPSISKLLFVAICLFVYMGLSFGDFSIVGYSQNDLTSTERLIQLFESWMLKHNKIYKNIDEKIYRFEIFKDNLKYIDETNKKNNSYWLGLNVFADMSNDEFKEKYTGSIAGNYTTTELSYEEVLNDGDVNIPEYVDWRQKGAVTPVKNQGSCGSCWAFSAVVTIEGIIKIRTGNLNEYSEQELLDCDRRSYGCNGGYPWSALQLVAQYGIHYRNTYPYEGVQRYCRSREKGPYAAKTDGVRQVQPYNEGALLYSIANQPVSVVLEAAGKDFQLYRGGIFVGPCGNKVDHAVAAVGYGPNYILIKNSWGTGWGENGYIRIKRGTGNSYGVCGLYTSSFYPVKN
# Experiment: Inhibition of papaya papain using BAPNA as substrate assessed as p-nitroaniline release by spectrophotometric analysis
row,IC50 [µM],SMILES
1,> 200,CCOP(=O)(CC=C(NC(=O)[C@H](CC(C)C)NC(=O)OCc1ccccc1)c1ccccc1)OCC
2,> 200,CCOP(=O)(CC=C(NC(=O)[C@H](CC(C)C)NC(=O)OC(C)(C)C)c1ccccc1)OCC
3,> 200,CCOP(=O)(CC=C(NC(=O)[C@H](Cc1c[nH]c2ccccc12)NC(=O)OCc1ccccc1)c1ccccc1)OCC
4,> 200,CCOP(=O)(CC=C(NC(=O)[C@H](CC(C)C)NC(=O)OCC1c2ccccc2-c2ccccc21)c1ccccc1)OCC

# Reference: BindingDB's records for doi:10.1016/j.bmc.2011.09.058 (National Chemical Laboratory (Csir-Ncl), 2011)
